This note sets out measurements from patent publication US20260085053A1, “BENZOFURAN DERIVATIVES AS SIK INHIBITORS AND THE USE THEREOF” (BEONE MEDICINES I GMBH, priority 2023, published 2026).

For assay [1], the target named is T1, SIK1 kinase (aa1-303, Thermo Fisher) (Homo sapiens, UniProt P57059).
T1 construct: SIK1 kinase (aa1-303, Thermo Fisher); purchased Thermo Fisher
Put plainly: Biochemical activities determination for SIK1 protein (TR-FRET). To be noted: 110 uM ATP, 0.5 μM STK1 substrate. As for the experimental part:
1. Biochemical Activities Determination for SIK1 Protein
(§1) Compounds were tested for inhibition of SIK1 kinase (aa1-303, Thermo Fisher) in assays based on the time-resolved fluorescence-resonance energy transfer (TR-FRET) methodology. The assays were carried out in 384-well low volume white plates in a reaction mixture containing SIK1 kinase, 110 uM ATP, 0.5 μM STK1 substrate and 0-10 μM compound in buffer containing 25 mM Tris, 0.01% Trition X-100, 0.5 mM EGTA, 5 mM MgCl2, 2.5 mM DTT, pH=7.5. The kinase was incubated with compounds for 60 minutes at room temperature and the reaction was initiated by the addition of ATP and STK1 substrate. After reaction at room temperature for 180 minutes, an equal volume of stop/detection solution was added according to the manufacture's instruction (CisBio Bioassays). The stop/detection solution contained STK Antibody-Cryptate and XL665-conjugated streptavidin (Cat: 62ST1PEC, Cisbio) in Detection Buffer (Cat: 62SDBRDF, Cisbio). Plates were sealed and incubated at room temperature for overnight, and the TR-FRET signals (ratio of fluorescence emission at 665 nm over emission at 620 nm with excitation at 337 nm wavelength) were recorded on a PHERAstar FS plate reader (BMG Labtech). Phosphorylation of STK1 substrate led to the binding of STK Antibody-Cryptate to the biotinylated SIK1 substrate, which places fluorescent donor (Eu^3+ crypate) in close proximity to the accepter (Streptavidin-XL665), thus resulting in a high degree of fluorescence resonance energy transfer from the donor fluorophore (at 620 nm) to the acceptor fluorophore (at 665 nm). […] The IC50 for each compound was derived from fitting the data to the four-parameter logistic equation by Dotmatics.
In general terms: Time-resolved FRET reads energy transfer from a long-lived donor to a nearby acceptor.

Assay [2] addresses T2, SIK3 kinase (aa59-365, Thermo Fisher) (Homo sapiens, UniProt Q9Y2K2).
T2 construct: SIK3 kinase (aa59-365, Thermo Fisher); purchased Thermo Fisher
Briefly: Biochemical activities determination for SIK3 protein (TR-FRET). To be noted: 125 uM ATP, 0.5 μM STK1 substrate. As for the experimental part:
3. Biochemical Activities Determination for SIK3 Protein
Compounds were tested for inhibition of SIK3 kinase (aa59-365, Thermo Fisher) in assays based on the time-resolved fluorescence-resonance energy transfer (TR-FRET) methodology. The assays were carried out in 384-well low volume white plates in a reaction mixture containing SIK3 kinase, 125 uM ATP, 0.5 μM STK1 substrate and 0-10 μM compound in buffer containing 25 mM Tris, 0.01% Trition X-100, 0.5 mM EGTA, 5 mM MgCl2, 2.5 mM DTT, PH=7.5. The kinase was incubated with compound for 60 minutes at room temperature and the reaction was initiated by the addition of ATP and STK1 substrate. After reaction at room temperature for 180 minutes, an equal volume of stop/detection solution was added according to the manufacture's instruction (CisBio Bioassays). The stop/detection solution contained STK Antibody-Cryptate and XL665-conjugated streptavidin (Cat: 62ST1PEC, Cisbio) in Detection Buffer (Cat: 62SDBRDF, Cisbio). Plates were sealed and incubated at room temperature for overnight, and the TR-FRET signals (ratio of fluorescence emission at 665 nm over emission at 620 nm with excitation at 337 nm wavelength) were recorded on a PHERAstar FS plate reader (BMG Labtech). Phosphorylation of STK1 substrate led to the binding of STK Antibody-Cryptate to the biotinylated STK1 substrate, which places fluorescent donor (Eu^3+ crypate) in close proximity to the accepter (Streptavidin-XL665), thus resulting in a high degree of fluorescence resonance energy transfer from the donor fluorophore (at 620 nm) to the acceptor fluorophore (at 665 nm). […] The IC50 for each compound was derived from fitting the data to the four-parameter logistic equation by Dotmatics.

The target of assay [3] is T3, SIK2 kinase (full length, Thermo Fisher) (Homo sapiens, UniProt Q9H0K1).
T3 construct: SIK2 kinase (full length, Thermo Fisher); purchased Thermo Fisher
T3 sequence (Q9H0K1 whole entry): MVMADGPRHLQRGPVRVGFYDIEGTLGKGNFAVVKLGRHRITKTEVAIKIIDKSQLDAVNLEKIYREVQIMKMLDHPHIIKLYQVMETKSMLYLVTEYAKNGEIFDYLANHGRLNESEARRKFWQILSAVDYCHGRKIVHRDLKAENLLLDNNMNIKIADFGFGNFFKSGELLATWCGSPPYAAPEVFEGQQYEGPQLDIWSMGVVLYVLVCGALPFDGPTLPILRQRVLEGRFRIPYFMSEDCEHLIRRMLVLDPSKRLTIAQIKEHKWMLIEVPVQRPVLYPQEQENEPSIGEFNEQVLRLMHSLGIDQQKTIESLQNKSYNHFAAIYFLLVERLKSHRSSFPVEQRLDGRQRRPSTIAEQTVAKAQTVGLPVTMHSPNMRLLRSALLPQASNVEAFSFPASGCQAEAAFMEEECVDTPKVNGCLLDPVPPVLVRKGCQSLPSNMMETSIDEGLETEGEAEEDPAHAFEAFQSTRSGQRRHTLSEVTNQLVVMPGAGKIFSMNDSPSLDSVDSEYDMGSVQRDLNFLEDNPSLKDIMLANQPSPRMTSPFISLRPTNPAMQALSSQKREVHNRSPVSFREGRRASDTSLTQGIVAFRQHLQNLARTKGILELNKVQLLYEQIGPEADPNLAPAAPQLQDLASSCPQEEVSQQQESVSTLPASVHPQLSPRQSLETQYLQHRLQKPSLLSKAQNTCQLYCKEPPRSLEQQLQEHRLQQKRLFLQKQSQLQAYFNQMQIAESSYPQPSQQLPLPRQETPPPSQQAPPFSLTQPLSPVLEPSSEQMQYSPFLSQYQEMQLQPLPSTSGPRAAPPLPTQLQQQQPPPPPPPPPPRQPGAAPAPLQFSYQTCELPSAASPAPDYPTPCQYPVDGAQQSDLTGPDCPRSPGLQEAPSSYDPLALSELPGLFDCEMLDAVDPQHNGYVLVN
Put plainly: Biochemical activities determination for SIK2 protein (TR-FRET). To be noted: 80 uM ATP, 0.5 μM substrate. As for the experimental part:
2. Biochemical Activities Determination for SIK2 Protein
as §1, with “of SIK2” for “of SIK1”, “kinase (full length,” for “kinase (aa1-303,”, “containing SIK2” for “containing SIK1”, “kinase, 80” for “kinase, 110”, “μM […]” for “μM STK1”, “biotinylated STK1” for “biotinylated SIK1”

T1 sequence (P57059 1-303): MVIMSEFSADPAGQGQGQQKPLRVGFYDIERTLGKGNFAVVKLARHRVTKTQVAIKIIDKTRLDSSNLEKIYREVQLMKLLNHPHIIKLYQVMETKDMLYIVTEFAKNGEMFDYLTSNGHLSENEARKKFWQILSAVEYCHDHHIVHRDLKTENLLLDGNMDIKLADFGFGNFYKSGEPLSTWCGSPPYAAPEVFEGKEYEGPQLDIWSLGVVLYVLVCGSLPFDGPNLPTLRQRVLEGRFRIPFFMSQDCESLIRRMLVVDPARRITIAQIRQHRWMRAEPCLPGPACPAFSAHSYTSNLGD
T2 sequence (Q9Y2K2 59-365): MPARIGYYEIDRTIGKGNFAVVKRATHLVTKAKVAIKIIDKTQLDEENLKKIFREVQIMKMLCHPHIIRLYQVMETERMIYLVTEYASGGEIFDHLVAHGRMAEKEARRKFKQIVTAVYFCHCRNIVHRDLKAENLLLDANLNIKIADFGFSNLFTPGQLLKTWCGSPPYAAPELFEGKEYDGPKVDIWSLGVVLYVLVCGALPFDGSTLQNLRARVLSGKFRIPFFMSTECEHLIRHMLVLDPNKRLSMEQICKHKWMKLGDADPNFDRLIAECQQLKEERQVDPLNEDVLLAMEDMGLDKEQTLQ

As a reminder, the IC50 is the concentration that inhibits the measured activity by half. Read a high IC50 as weaker potency in that assay. With `COc1cc(-c2coc3cc(OCCN4CCCC4)ccc23)cc(OC(F)F)c1C(=O)NC1CCCCC1N` (racemic) [Compound 124, N-(2-aminocyclohexyl)-2-(difluoromethoxy)-6-methoxy-4-(6-(2-(pyrrolidin-1-yl)ethoxy)benzofuran-3-yl)benzamide], the concentration for half-maximal inhibition (IC50) was 1220 nM in assay [1], 161 nM in assay [2] and 18 nM in assay [3].

Consider `COc1cc(-c2coc3cc(OCCN4CCCC4)ccc23)cc(OC(F)F)c1C(=O)NC1CCCC1N` (racemic) [Compound 130, N-(2-aminocyclopentyl)-2-(difluoromethoxy)-6-methoxy-4-(6-(2-(pyrrolidin-1-yl)ethoxy)benzofuran-3-yl)benzamide], for which the IC50 in assay [1] was > 10000 nM; in assay [2], 359 nM; in assay [3], 103 nM.

As for `COc1cc(-c2coc3cc(OCCN4CCCC4)ccc23)cc(OC(F)F)c1C(=O)NC1CC1N` (racemic) [Compound 131, N-(2-aminocyclopropyl)-2-(difluoromethoxy)-6-methoxy-4-(6-(2-(pyrrolidin-1-yl)ethoxy)benzofuran-3-yl)benzamide], the concentration for half-maximal inhibition (IC50) in assay [1] is > 10000 nM; in assay [2], 1560 nM; in assay [3] it was 653 nM.

Consider `COc1cc(-c2coc3cc(-c4cn(C)nc4C)ccc23)cc2c1C(=O)N(CC(F)(F)F)CC2` [Compound 15, 6-(6-(1,3-dimethyl-1H-pyrazol-4-yl)benzofuran-3-yl)-8-methoxy-2-(2,2,2-trifluoroethyl)-3,4-dihydroisoquinolin-1 (2H)-one], for which the IC50 in assay [1] came to 6040 nM; in assay [2] it was 174 nM; in assay [3], 95 nM.

With `COc1cc(-c2coc3cc(-c4cn(C)nc4C(F)(F)F)ccc23)cc2c1C(=O)N(CC(F)(F)F)CC2` [Compound 16, 8-methoxy-6-(6-(1-methyl-3-(trifluoromethyl)-1H-pyrazol-4-yl)benzofuran-3-yl)-2-(2,2,2-trifluoroethyl)-3,4-dihydroisoquinolin-1 (2H)-one], the results for the concentration for half-maximal inhibition (IC50) in assay [1], in assay [2] and in assay [3] were > 10000 nM, 5840 nM and 3350 nM, respectively.

Regarding `COc1cc(-c2coc3cc(-c4cn(C)nn4)ccc23)cc2c1C(=O)N(CC(F)(F)F)CC2` [Compound 17, 8-methoxy-6-(6-(1-methyl-1H-1,2,3-triazol-4-yl)benzofuran-3-yl)-2-(2,2,2-trifluoroethyl)-3,4-dihydroisoquinolin-1 (2H)-one], the IC50 in assay [1] came out at 2310 nM; in assay [2], 79 nM; in assay [3], 28 nM.

Regarding `COc1cc(-c2coc3cc(-c4cn(C)nc4C#N)ccc23)cc2c1C(=O)N(CC(F)(F)F)CC2` [Compound 18, 4-(3-(8-methoxy-1-oxo-2-(2,2,2-trifluoroethyl)-1,2,3,4-tetrahydroisoquinolin-6-yl)benzofuran-6-yl)-1-methyl-1H-pyrazole-3-carbonitrile], the half-maximal inhibitory concentration (IC50) is > 10000 nM in assay [1], 237 nM in assay [2] and 214 nM in assay [3].

For the molecule `COc1cc(-c2coc3cc(-c4cn(C)nc4OC)ccc23)cc2c1C(=O)N(CC(F)(F)F)CC2` [Compound 19, 8-methoxy-6-(6-(3-methoxy-1-methyl-1H-pyrazol-4-yl)benzofuran-3-yl)-2-(2,2,2-trifluoroethyl)-3,4-dihydroisoquinolin-1 (2H)-one], the IC50 in assay [1] came to 3130 nM; in assay [2], 132 nM; in assay [3] it was 80 nM.

For the molecule `COc1cc(-c2coc3cc(-c4cnn(C)c4)ccc23)cc2c1C(=O)N(CC#N)CC2` [Compound 20, 2-(8-methoxy-6-(6-(1-methyl-1H-pyrazol-4-yl)benzofuran-3-yl)-1-oxo-3,4-dihydroisoquinolin-2 (1H)-yl) acetonitrile], the IC50 in assay [1] came to 362 nM; in assay [2], 14 nM; in assay [3], 12 nM.

Turning to `Cn1cc(-c2ccc3c(-c4cc5c(c(OC(F)F)c4)C(=O)N(CC#N)CC5)coc3c2)cn1` [Compound 21, 2-(8-(difluoromethoxy)-6-(6-(1-methyl-1H-pyrazol-4-yl)benzofuran-3-yl)-1-oxo-3,4-dihydroisoquinolin-2 (1H)-yl) acetonitrile], the half-inhibitory concentration (IC50) is 289 nM in assay [1], 15 nM in assay [2] and 11 nM in assay [3].

For the molecule `COc1cc(-c2coc3cc(-c4cn(C)nc4F)ccc23)cc2c1C(=O)N(CC(F)(F)F)CC2` [Compound 22, 6-(6-(3-fluoro-1-methyl-1H-pyrazol-4-yl)benzofuran-3-yl)-8-methoxy-2-(2,2,2-trifluoroethyl)-3,4-dihydroisoquinolin-1 (2H)-one], the values for the half-maximal inhibitory concentration (IC50) in assay [1], in assay [2] and in assay [3] were 5920 nM, 127 nM and 79 nM, respectively.

Take `COc1cc(-c2coc3cc(-c4cn(C)nc4Cl)ccc23)cc2c1C(=O)N(CC(F)(F)F)CC2` [Compound 23, 6-(6-(3-chloro-1-methyl-1H-pyrazol-4-yl)benzofuran-3-yl)-8-methoxy-2-(2,2,2-trifluoroethyl)-3,4-dihydroisoquinolin-1 (2H)-one]: the IC50 in assay [1] is > 10000 nM; in assay [2] it was 387 nM; in assay [3], 223 nM.

Regarding `Cn1cc(-c2ccc3c(-c4cc5c(c(OC(F)F)c4)C(=O)N(CC(N)=O)CC5)coc3c2)cn1` [Compound 24, 2-(8-(difluoromethoxy)-6-(6-(1-methyl-1H-pyrazol-4-yl)benzofuran-3-yl)-1-oxo-3,4-dihydroisoquinolin-2 (1H)-yl) acetamide], the 50% inhibitory concentration (IC50) in assay [1] is 3340 nM; in assay [2] it was 320 nM; in assay [3] it was 281 nM.

Consider `COc1cc(-c2coc3cc(-c4cnn(C)c4)ccc23)cc(OC(F)F)c1C(=O)NCC(F)(F)F` [Compound 25, 2-(difluoromethoxy)-6-methoxy-4-(6-(1-methyl-1H-pyrazol-4-yl)benzofuran-3-yl)-N-(2,2,2-trifluoroethyl)benzamide], for which the half-inhibitory concentration (IC50) in assay [1] worked out at 195 nM; in assay [2], 26 nM; in assay [3] it was 15 nM.

Consider `COc1cc(-c2coc3cc(-c4cnn(C)c4)ccc23)cc(OC(F)F)c1C(=O)N[C@@H]1C[C@@H]1F` [Compound 26, 2-(difluoromethoxy)-N-((1R,2S)-2-fluorocyclopropyl)-6-methoxy-4-(6-(1-methyl-1H-pyrazol-4-yl)benzofuran-3-yl)benzamide], for which the IC50 in assay [1] worked out at 33 nM; in assay [2], 5 nM; in assay [3], 3.4 nM.
